pEC50: −log10 of the molar value. Where only a bound is given, the exact number is not on record here.

The first assay has as its system recombinant NL4-3 virus (Renilla luciferase in nef, Gag P373S; NLRluc) in MT-2 cells. Put plainly: whole plant or invertebrate. In kind it is cell-based, HIV. The note with it: Renilla, NL43, luciferase activity in cells infected for 4-5 days with NLRluc recombinants, serial dilutions of inhibitor; class symbols (key in Table 1); read-out: EC50. The gist of the method: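 Virus from 293T transfection, titered in MT-2 by luciferase. MT-2 (RPMI, 10% HI-FBS) infected ± inhibitor serial dilutions, 4-5 d. Readout: Dual Luciferase premix (lysis:reagent:Stop & Glo 2:1:1), immediate luminescence.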
In the case of `C=C(C)[C@@H]1CC[C@]2(NC(=O)OCCCN3CCS(=O)(=O)CC3)CC[C@]3(C)[C@H](CC[C@@H]4[C@@]5(C)CC=C(c6ccc(C(=O)O)cc6)C(C)(C)[C@@H]5CC[C@]43C)[C@@H]12` [Example 70, benzoic acid, 4-[(1R,3aS,5aR,5bR,7aR,11aS,11bR,13aR,13bR)-3a-[[[3-(1,1-dioxido-4-thiomorpholinyl)propoxy]carbonyl]amino]2,3,3a,4,5,5a,5b,6,7,7a,8,11,11a,11b,12,13,13a,13b-octadecahydro-5a,5b,8,8,11a-pentamethyl-1-(1-methylethenyl)-1H-cyclopenta[a]chrysen-9-yl]], the pEC50 (commonly the EC50 on a negative log10 scale, so that one unit is a factor of ten) was more than 7.00.

Regarding `C=C(C)[C@@H]1CC[C@]2(NC(=O)OCCN3CCS(=O)(=O)CC3)CC[C@]3(C)[C@H](CC[C@@H]4[C@@]5(C)CC=C(c6ccc(C(=O)O)cc6)C(C)(C)[C@@H]5CC[C@]43C)[C@@H]12` [Example 71, benzoic acid, 4-[(1R,3aS,5aR,5bR,7aR,11aS,11bR,13aR,13bR)-3a-[[[2-(1,1-dioxido-4-thiomorpholinyl)ethoxy]carbonyl]amino]-2,3,3a,4,5,5a,5b,6,7,7a,8,11,11a,11b,12,13,13a,13b-octadecahydro-5a,5b,8,8,11a-pentamethyl-1-(1-methylethenyl)-1H-cyclopenta[a]chrysen-9-yl]], the pEC50 is more than 7.00.

Regarding `C=C(C)[C@@H]1CC[C@]2(NC(=O)OCCCCN3CCS(=O)(=O)CC3)CC[C@]3(C)[C@H](CC[C@@H]4[C@@]5(C)CC=C(c6ccc(C(=O)O)cc6)C(C)(C)[C@@H]5CC[C@]43C)[C@@H]12` [Example 72, benzoic acid, 4-[(1R,3aS,5aR,5bR,7aR,11aS,11bR,13aR,13bR)-3a-[[[4-(1,1-dioxido-4-thiomorpholinyl)butoxy]carbonyl]amino]-2,3,3a,4,5,5a,5b,6,7,7a,8,11,11a,11b,12,13,13a,13b-octadecahydro-5a,5b,8,8,11a-pentamethyl-1-(1-methylethenyl)-1H-cyclopenta[a]chrysen-9-yl]], the pEC50 is more than 7.00.

For the compound `C=C(C)[C@@H]1CC[C@]2(NC(=O)CCN(C)C)CC[C@]3(C)[C@H](CC[C@@H]4[C@@]5(C)CC=C(c6ccc(C(=O)O)cc6)C(C)(C)[C@@H]5CC[C@]43C)[C@@H]12` [Example 73, 4-((1R,3aS,5aR,5bR,7aR,11aS,11bR,13aR,13bR)-3a-(3-(dimethylamino)propanamido)-5a,5b,8,8,11a-pentamethyl-1-(prop-1-en-2-yl)-2,3,3a,4,5,5a,5b,6,7,7a,8,11,11a,11b,12,13,13a,13b-octadecahydro-1H-cyclopenta[a]chrysen-9-yl)benzoic acid], the pEC50 was more than 7.00.

Consider `C=C(C)[C@@H]1CC[C@]2(NC(=O)CCCN(C)C)CC[C@]3(C)[C@H](CC[C@@H]4[C@@]5(C)CC=C(c6ccc(C(=O)O)cc6)C(C)(C)[C@@H]5CC[C@]43C)[C@@H]12` [Example 74, 4-((1R,3aS,5aR,5bR,7aR,11aS,11bR,13aR,13bR)-3a-(4-(dimethylamino)butanamido)-5a,5b,8,8,11a-pentamethyl-1-(prop-1-en-2-yl)-2,3,3a,4,5,5a,5b,6,7,7a,8,11,11a,11b,12,13,13a,13b-octadecahydro-1H-cyclopenta[a]chrysen-9-yl)benzoic acid], for which the pEC50 is more than 7.00.

As for `C=C(C)[C@@H]1CC[C@]2(NC(=O)CCc3nccn3C)CC[C@]3(C)[C@H](CC[C@@H]4[C@@]5(C)CC=C(c6ccc(C(=O)O)cc6)C(C)(C)[C@@H]5CC[C@]43C)[C@@H]12` [Example 75, 4-((1R,3aS,5aR,5bR,7aR,11aS,11bR,13aR,13bR)-5a,5b,8,8,11a-pentamethyl-3a-(3-(1-methyl-1H-imidazol-2-yl)propanamido)-1-(prop-1-en-2-yl)-2,3,3a,4,5,5a,5b,6,7,7a,8,11,11a,11b,12,13,13a,13b-octadecahydro-1H-cyclopenta[a]chrysen-9-yl)benzoic acid], the pEC50 was more than 7.00.

On to `C=C(C)[C@@H]1CC[C@]2(NC(=O)C(=O)N(C)C)CC[C@]3(C)[C@H](CC[C@@H]4[C@@]5(C)CC=C(c6ccc(C(=O)O)cc6)C(C)(C)[C@@H]5CC[C@]43C)[C@@H]12` [Example 76, 4-((1R,3aS,5aR,5bR,7aR,11aS,11bR,13aR,13bR)-3a-(2-(dimethylamino)-2-oxoacetamido)-5a,5b,8,8,11a-pentamethyl-1-(prop-1-en-2-yl)-2,3,3a,4,5,5a,5b,6,7,7a,8,11,11a,11b,12,13,13a,13b-octadecahydro-1H-cyclopenta[a]chrysen-9-yl)benzoic acid], for which the pEC50 was more than 7.00.

Take `C=C(C)[C@@H]1CC[C@]2(NC(=O)Cc3nnn[nH]3)CC[C@]3(C)[C@H](CC[C@@H]4[C@@]5(C)CC=C(c6ccc(C(=O)O)cc6)C(C)(C)[C@@H]5CC[C@]43C)[C@@H]12` [Example 77, 4-((1R,3aS,5aR,5bR,7aR,11aS,11bR,13aR,13bR)-3a-(2-(1H-tetrazol-5-yl)acetamido)-5a,5b,8,8,11a-pentamethyl-1-(prop-1-en-2-yl)-2,3,3a,4,5,5a,5b,6,7,7a,8,11,11a,11b,12,13,13a,13b-octadecahydro-1H-cyclopenta[a]chrysen-9-yl)benzoic acid]: the pEC50 was more than 7.00.

As to `C=C(C)[C@@H]1CC[C@]2(NC(=O)C(=O)Nc3nncs3)CC[C@]3(C)[C@H](CC[C@@H]4[C@@]5(C)CC=C(c6ccc(C(=O)O)cc6)C(C)(C)[C@@H]5CC[C@]43C)[C@@H]12` [Example 78, 4-((1R,3aS,5aR,5bR,7aR,11aS,11bR,13aR,13bR)-3a-(2-(1,3,4-thiadiazol-2-ylamino)-2-oxoacetamido)-5a,5b,8,8,11a-pentamethyl-1-(prop-1-en-2-yl)-2,3,3a,4,5,5a,5b,6,7,7a,8,11,11a,11b,12,13,13a,13b-octadecahydro-1H-cyclopenta[a]chrysen-9-yl)benzoic acid], the pEC50 is more than 7.00.

On to `C=C(C)[C@@H]1CC[C@]2(NC(=O)C(=O)Nc3nccs3)CC[C@]3(C)[C@H](CC[C@@H]4[C@@]5(C)CC=C(c6ccc(C(=O)O)cc6)C(C)(C)[C@@H]5CC[C@]43C)[C@@H]12` [Example 79, 4-((1R,3aS,5aR,5bR,7aR,11aS,11bR,13aR,13bR)-5a,5b,8,8,11a-pentamethyl-3a-(2-oxo-2-(thiazol-2-ylamino)acetamido)-1-(prop-1-en-2-yl)-2,3,3a,4,5,5a,5b,6,7,7a,8,11,11a,11b,12,13,13a,13b-octadecahydro-1H-cyclopenta[a]chrysen-9-yl)benzoic acid], for which the pEC50 was more than 7.00.

Regarding `C=C(C)[C@@H]1CC[C@]2(NC(=O)CCN3CCS(=O)(=O)CC3)CC[C@]3(C)[C@H](CC[C@@H]4[C@@]5(C)CC=C(c6ccc(C(=O)O)cc6)C(C)(C)[C@@H]5CC[C@]43C)[C@@H]12` [Example 81, benzoic acid, 4-[(1R,3aS,5aR,5bR,7aR,11aS,11bR,13aR,13bR)-3a-[[3-(1,1-dioxido-4-thiomorpholinyl)-1-oxopropyl]amino]-2,3,3a,4,5,5a,5b,6,7,7a,8,11,11a,11b,12,13,13a,13b-octadecahydro-5a,5b,8,8,11a-pentamethyl-1-(1-methylethenyl)-1H-cyclopenta[a]chrysen-9-yl]], the pEC50 is more than 7.00.

As to `C=C(C)[C@@H]1CC[C@]2(NC(=O)CN3CCS(=O)(=O)CC3)CC[C@]3(C)[C@H](CC[C@@H]4[C@@]5(C)CC=C(c6ccc(C(=O)O)cc6)C(C)(C)[C@@H]5CC[C@]43C)[C@@H]12` [Example 82, benzoic acid, 4-[(1R,3aS,5aR,5bR,7aR,11aS,11bR,13aR,13bR)-3a-[[(1,1-dioxido-4-thiomorpholinyl)acetyl]amino]-2,3,3a,4,5,5a,5b,6,7,7a,8,11,11a,11b,12,13,13a,13b-octadecahydro-5a,5b,8,8,11a-pentamethyl-1-(1-methylethenyl)-1H-cyclopenta[a]chrysen-9-yl]], the pEC50 was more than 7.00.

As to `C=C(C)[C@@H]1CC[C@]2(NC(=O)CN3C[C@@H](C)O[C@@H](C)C3)CC[C@]3(C)[C@H](CC[C@@H]4[C@@]5(C)CC=C(c6ccc(C(=O)O)cc6)C(C)(C)[C@@H]5CC[C@]43C)[C@@H]12` [Example 83, 4-((1R,3aS,5aR,5bR,7aR,11aS,11bR,13aR,13bR)-3a-(2-((2S,6R)-2,6-dimethylmorpholino)acetamido)-5a,5b,8,8,11a-pentamethyl-1-(prop-1-en-2-yl)-2,3,3a,4,5,5a,5b,6,7,7a,8,11,11a,11b,12,13,13a,13b-octadecahydro-1H-cyclopenta[a]chrysen-9-yl)benzoic acid], the pEC50 is more than 7.00.

Turning to `C=C(C)[C@@H]1CC[C@]2(NC(=O)CN3CCN(CCO)CC3)CC[C@]3(C)[C@H](CC[C@@H]4[C@@]5(C)CC=C(c6ccc(C(=O)O)cc6)C(C)(C)[C@@H]5CC[C@]43C)[C@@H]12` [Example 84, 4-((1R,3aS,5aR,5bR,7aR,11aS,11bR,13aR,13bR)-3a-(2-(4-(2-hydroxyethyl)piperazin-1-yl)acetamido)-5a,5b,8,8,11a-pentamethyl-1-(prop-1-en-2-yl)-2,3,3a,4,5,5a,5b,6,7,7a,8,11,11a,11b,12,13,13a,13b-octadecahydro-1H-cyclopenta[a]chrysen-9-yl)benzoic acid], the pEC50 was more than 7.00.

The same assay, now with this note: Renilla, NL43, luciferase activity in cells infected for 4-5 days with NLRluc recombinants, serial dilutions of inhibitor; numeric values; read-out: EC50.
Regarding `C=C(C)[C@@H]1CC[C@]2(NC(=O)C(=O)NC3CCCCC3)CC[C@]3(C)[C@H](CC[C@@H]4[C@@]5(C)CC=C(c6ccc(C(=O)O)cc6)C(C)(C)[C@@H]5CC[C@]43C)[C@@H]12` [Example 80, 4-((1R,3aS,5aR,5bR,7aR,11aS,11bR,13aR,13bR)-3a-(2-(cyclohexylamino)-2-oxoacetamido)-5a,5b,8,8,11a-pentamethyl-1-(prop-1-en-2-yl)-2,3,3a,4,5,5a,5b,6,7,7a,8,11,11a,11b,12,13,13a,13b-octadecahydro-1H-cyclopenta[a]chrysen-9-yl)benzoic acid], the pEC50 was 6.96.

The record behind these values is US20140343000A1 (priority 2011, published 2014).
